# Test system: NF-κB
# Assay: NF-κB assay: THP1-NF-κB-LUC cells, LPS-stimulated secreted luciferase
# Type: cell-based
# Conditions: THP1-NF-κB-LUC cells, LPS-stimulated; read-out: IC50 (NF-κB assay)
# Procedure, shortened: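 THP1-NF-κB-LUC cells (25k/well) were pretreated with compounds for 2 h, then stimulated with LPS (10 ng/mL) for 18 h. Secreted luciferase was measured and normalized to vehicle, and IC50 was fitted from the concentration series.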
row,Compound,IC50 [µM]
1,CCSc1oc(-c2ccc(C)cc2)nc1S(=O)(=O)c1ccc(F)cc1 [BC18514],1 to 10
2,CSc1oc(-c2ccc(F)cc2)nc1S(=O)(=O)c1ccccc1 [BC18515],> 10
3,O=C(CSc1oc(-c2ccc(F)cc2)nc1S(=O)(=O)c1ccccc1)c1ccc(Cl)cc1 [BC18516],1 to 10
4,CCC(C)Sc1oc(-c2ccc(F)cc2)nc1S(=O)(=O)c1ccc(C)cc1 (centres unmarked) [BC18517],1 to 10
5,CCC(C)Sc1oc(-c2ccc(F)cc2)nc1S(=O)(=O)c1ccc(F)cc1 (centres unmarked) [BC18518],1 to 10
6,CCCCSc1oc(-c2ccc(F)cc2)nc1S(=O)(=O)c1ccc(Cl)cc1 [BC18519],> 10
7,CCCS(=O)(=O)c1oc(-c2ccc(F)cc2)nc1S(=O)(=O)c1ccccc1 [BC18520],< 0.1
8,CCC(C)S(=O)(=O)c1oc(-c2ccc(F)cc2)nc1S(=O)(=O)c1ccc(C)cc1 (centres unmarked) [BC18521],< 0.1
9,CC(=O)CSc1oc(-c2ccc(C)cc2)nc1S(=O)(=O)c1ccccc1 [BC18525],> 10
10,CCSc1oc(-c2ccc(F)cc2)nc1S(=O)(=O)c1ccccc1 [BC18526],1 to 10
11,CC(C)CSc1oc(-c2ccc(F)cc2)nc1S(=O)(=O)c1ccccc1 [BC18527],1 to 10
12,Cc1ccc(S(=O)(=O)c2nc(-c3ccc(F)cc3)oc2SCC(C)C)cc1 [BC18528],> 10
13,Cc1ccc(S(=O)(=O)c2nc(-c3ccc(F)cc3)oc2SCC(C)C)cc1 [BC18529],1 to 10
14,O=C(CSc1oc(-c2ccc(F)cc2)nc1S(=O)(=O)c1ccc(Cl)cc1)c1ccc(F)cc1 [BC18530],1 to 10
15,CC(C)S(=O)(=O)c1oc(-c2ccc(F)cc2)nc1S(=O)(=O)c1ccccc1 [BC18531],< 0.1
16,CCS(=O)(=O)c1oc(-c2ccc(F)cc2)nc1S(=O)(=O)c1ccc(F)cc1 [BC18532],< 0.1
17,CCCS(=O)(=O)c1oc(-c2ccc(F)cc2)nc1S(=O)(=O)c1ccc(Cl)cc1 [BC18533],< 0.1
18,CCCSc1oc(-c2ccccc2)nc1S(=O)(=O)c1ccc(Cl)cc1 [BC18535],1 to 10
19,NC(=O)CSc1oc(-c2ccc(F)cc2)nc1S(=O)(=O)c1ccc(F)cc1 [BC18539],> 10
20,CCCCCSc1oc(-c2ccc(F)cc2)nc1S(=O)(=O)c1ccc(F)cc1 [BC18540],> 10
21,CCCS(=O)(=O)c1oc(-c2ccc(F)cc2)nc1S(=O)(=O)c1ccc(F)cc1 [BC18543],< 0.1
22,CCSc1oc(-c2ccc(C)cc2)nc1S(=O)(=O)c1ccc(Cl)cc1 [BC18547],> 10

row,Compound,IC50 [µM]
1,CSc1oc(-c2ccc(F)cc2)nc1S(=O)(=O)c1ccc(C)cc1 [BC18549],> 10
2,CSc1oc(-c2ccc(F)cc2)nc1S(=O)(=O)c1ccc(F)cc1 [BC18550],> 10
3,NC(=O)CSc1oc(-c2ccc(F)cc2)nc1S(=O)(=O)c1ccc(Cl)cc1 [BC18551],> 10
4,CCC(C)S(=O)(=O)c1oc(-c2ccc(F)cc2)nc1S(=O)(=O)c1ccccc1 (centres unmarked) [BC18553],< 0.1
5,CCSc1oc(-c2ccccc2)nc1S(=O)(=O)c1ccc(F)cc1 [BC18556],1 to 10
6,CCCCSc1oc(-c2ccccc2)nc1S(=O)(=O)c1ccc(Cl)cc1 [BC18557],1 to 10
7,CCCCSc1oc(-c2ccc(F)cc2)nc1S(=O)(=O)c1ccccc1 [BC18559],1 to 10
8,CCSc1oc(-c2ccc(F)cc2)nc1S(=O)(=O)c1ccc(Br)cc1 [BC18563],> 10
9,CCCCS(=O)(=O)c1oc(-c2ccc(F)cc2)nc1S(=O)(=O)c1ccc(F)cc1 [BC18565],< 0.1
10,CS(=O)(=O)c1oc(-c2ccc(F)cc2)nc1S(=O)(=O)c1ccc(Br)cc1 [BC18566],< 0.1
11,CCCSc1oc(-c2ccccc2)nc1S(=O)(=O)c1ccc(F)cc1 [BC18567],> 10
12,CCC(C)Sc1oc(-c2ccccc2)nc1S(=O)(=O)c1ccc(Cl)cc1 (centres unmarked) [BC18568],1 to 10
13,Cc1ccc(-c2nc(S(=O)(=O)c3ccc(Cl)cc3)c(SC(C)C)o2)cc1 [BC18569],1 to 10
14,CCC(C)S(=O)(=O)c1oc(-c2ccc(F)cc2)nc1S(=O)(=O)c1ccc(F)cc1 (centres unmarked) [BC18576],< 0.1
15,CCS(=O)(=O)c1oc(-c2ccc(F)cc2)nc1S(=O)(=O)c1ccc(Br)cc1 [BC18577],< 0.1
16,CC(C)CSc1oc(-c2ccccc2)nc1S(=O)(=O)c1ccc(F)cc1 [BC18578],1 to 10
17,Cc1ccc(-c2nc(S(=O)(=O)c3ccc(Cl)cc3)c(SCC(C)C)o2)cc1 [BC18580],> 10
18,CC(C)Sc1oc(-c2ccc(F)cc2)nc1S(=O)(=O)c1ccc(F)cc1 [BC18583],1 to 10
19,CC(C)Sc1oc(-c2ccc(F)cc2)nc1S(=O)(=O)c1ccc(Br)cc1 [BC18585],1 to 10
20,Cc1ccc(S(=O)(=O)c2nc(-c3ccc(F)cc3)oc2S(=O)(=O)C(C)C)cc1 [BC18586],< 0.1
21,CC(C)CS(=O)(=O)c1oc(-c2ccc(F)cc2)nc1S(=O)(=O)c1ccc(F)cc1 [BC18587],< 0.1
22,CCCS(=O)(=O)c1oc(-c2ccc(F)cc2)nc1S(=O)(=O)c1ccc(Br)cc1 [BC18588],< 0.1

# The remaining lines, values ahead:
row,IC50 [µM],Compound
1,> 10,CSc1oc(-c2ccccc2)nc1S(=O)(=O)c1ccc(Cl)cc1 [BC18513]
2,< 0.1,CS(=O)(=O)c1oc(-c2ccc(F)cc2)nc1S(=O)(=O)c1ccc(Cl)cc1 [BC18522]
3,> 10,O=S(=O)(Cc1ccc(F)cc1)c1oc(-c2ccccc2)nc1S(=O)(=O)c1ccccc1 [BC18523]
4,1 to 10,CCS(=O)(=O)c1oc(-c2ccccc2)nc1S(=O)(=O)c1ccc(Cl)cc1 [BC18524]
5,> 10,O=S(=O)(c1ccccc1)c1nc(-c2ccccc2)oc1SCc1ccccc1F [BC18534]
6,> 10,CSc1oc(-c2ccc(C)cc2)nc1S(=O)(=O)c1ccc(Cl)cc1 [BC18536]
7,1 to 10,CCCSc1oc(-c2ccc(F)cc2)nc1S(=O)(=O)c1ccccc1 [BC18537]
8,> 10,CCCCCSc1oc(-c2ccc(F)cc2)nc1S(=O)(=O)c1ccccc1 [BC18538]
9,> 10,CC(C)CSc1oc(-c2ccc(F)cc2)nc1S(=O)(=O)c1ccc(Cl)cc1 [BC18541]
10,< 0.1,CCCCS(=O)(=O)c1oc(-c2ccc(F)cc2)nc1S(=O)(=O)c1ccccc1 [BC18542]
11,0.1 to 1,CCCCS(=O)(=O)c1oc(-c2ccc(F)cc2)nc1S(=O)(=O)c1ccc(Cl)cc1 [BC18544]
12,1 to 10,CSc1oc(-c2ccccc2)nc1S(=O)(=O)c1ccc(F)cc1 [BC18545]
13,1 to 10,CC(C)Sc1oc(-c2ccccc2)nc1S(=O)(=O)c1ccc(Cl)cc1 [BC18546]
14,1 to 10,CC(C)Sc1oc(-c2ccc(F)cc2)nc1S(=O)(=O)c1ccccc1 [BC18548]
15,> 10,CSc1oc(-c2ccc(F)cc2)nc1S(=O)(=O)c1ccc(Br)cc1 [BC18552]
16,< 0.1,CC(C)S(=O)(=O)c1oc(-c2ccc(F)cc2)nc1S(=O)(=O)c1ccc(F)cc1 [BC18554]

row,IC50 [µM],Compound
1,< 0.1,CC(C)CS(=O)(=O)c1oc(-c2ccc(F)cc2)nc1S(=O)(=O)c1ccc(Cl)cc1 [BC18555]
2,> 10,CCCSc1oc(-c2ccc(C)cc2)nc1S(=O)(=O)c1ccc(Cl)cc1 [BC18558]
3,1 to 10,CCSc1oc(-c2ccc(F)cc2)nc1S(=O)(=O)c1ccc(C)cc1 [BC18560]
4,1 to 10,CCSc1oc(-c2ccc(F)cc2)nc1S(=O)(=O)c1ccc(F)cc1 [BC18561]
5,> 10,CSc1oc(-c2ccc(F)cc2)nc1S(=O)(=O)c1ccc(Cl)cc1 [BC18562]
6,< 0.1,O=S(=O)(Cc1ccccc1F)c1oc(-c2ccc(F)cc2)nc1S(=O)(=O)c1ccccc1 [BC18564]
7,1 to 10,CCC(C)Sc1oc(-c2ccc(F)cc2)nc1S(=O)(=O)c1ccccc1 (centres unmarked) [BC18570]
8,1 to 10,CCCSc1oc(-c2ccc(F)cc2)nc1S(=O)(=O)c1ccc(C)cc1 [BC18571]
9,> 10,CCCSc1oc(-c2ccc(F)cc2)nc1S(=O)(=O)c1ccc(F)cc1 [BC18572]
10,1 to 10,CCSc1oc(-c2ccc(F)cc2)nc1S(=O)(=O)c1ccc(Cl)cc1 [BC18573]
11,> 10,CCCSc1oc(-c2ccc(F)cc2)nc1S(=O)(=O)c1ccc(Br)cc1 [BC18574]
12,< 0.1,CC(C)CS(=O)(=O)c1oc(-c2ccc(F)cc2)nc1S(=O)(=O)c1ccccc1 [BC18575]
13,1 to 10,CC(C)CSc1oc(-c2ccccc2)nc1S(=O)(=O)c1ccc(Cl)cc1 [BC18579]
14,1 to 10,O=S(=O)(c1ccccc1)c1nc(-c2ccc(F)cc2)oc1SCc1ccc(F)cc1 [BC18581]
15,1 to 10,Cc1ccc(S(=O)(=O)c2nc(-c3ccc(F)cc3)oc2SC(C)C)cc1 [BC18582]
16,> 10,CCCSc1oc(-c2ccc(F)cc2)nc1S(=O)(=O)c1ccc(Cl)cc1 [BC18584]

# Same assay, conditions: THP1-NF-κB-LUC cells; compounds 2 hours before LPS (10 ng/mL) for 18 hours; secreted luciferase; read-out: IC50 (NF-κB assay)
row,IC50 [µM],Compound
1,> 10,Cc1cc2c(cc1S(=O)(=O)Nc1ccc(CCC(=O)O)cc1)OCC(=O)N2 [BC181300]
2,> 10,COc1cc(NS(=O)(=O)c2cc3c(cc2C)NC(=O)CO3)cc(OC)c1 [BC181301]
3,< 0.1,CCOc1ccc(NS(=O)(=O)c2cc3c(cc2C)NC(=O)CO3)cc1 [BC181302]
4,< 0.1,CC(=O)c1cccc(NS(=O)(=O)c2cc3c(cc2C)NC(=O)CO3)c1 [BC181303]
5,> 10,CCCCN(c1ccccc1)S(=O)(=O)c1cc2c(cc1C)NC(=O)CO2 [BC181304]
6,< 0.1,Cc1ccc(NS(=O)(=O)c2cc3c(cc2C)NC(=O)CO3)cc1Cl [BC181305]
7,1 to 10,CC(=O)N1CCOc2cc(S(=O)(=O)Nc3ccc(Br)c(C)c3)c(C)cc21 [BC181306]
8,> 10,COc1cccc(NS(=O)(=O)c2cc3c(cc2C)N(C)CCO3)c1 [BC181308]
9,> 10,Cc1ccc(NS(=O)(=O)c2cc3c(cc2C)N(C)CCO3)cc1F [BC181309]
10,< 0.1,Cc1cc2c(cc1S(=O)(=O)Nc1ccccc1)OCC(=O)N2 [BC181310]
11,< 0.1,Cc1cc2c(cc1S(=O)(=O)Nc1cc(F)ccc1F)OCC(=O)N2 [BC181311]
12,1 to 10,Cc1cc2c(cc1S(=O)(=O)Nc1cccc(C)c1C)OCC(=O)N2 [BC181312]

# Same assay, conditions: read-out: IC50 (NF-κB assay)
row,Compound,IC50 [µM]
1,COc1cc(NS(=O)(=O)c2cc3c(cc2C)N(C(C)=O)CCO3)cc(OC)c1 [BC181307],> 10

# From US12606528B2, “Methods and materials for inhibiting NF-kB activity” (University of Pittsburgh - Of the Commonwealth System of …, priority 2019, dated 2026)
